In brackets after ≈: the same amount, converted by molar mass. Several values for one entry are separate records, joined by “and”; a condition that tells them apart may be missing. Identical values can stand only once. Like-named read-outs stand apart in the source and are kept apart here.
Columns and labels:
[1] = tested on: 96 clinically isolated A. fumigatus strains; assay: EUCAST MIC against clinical isolates (visual); format: cell-based, Aspergillus fumigatus; conditions: 96 clinical isolates, visual; for MIC50 / MIC90 / MIC: Aspergillus fumigatus
From the text: The antifungal activity of PC1244 was further evaluated against 96 clinical isolates (obtained from Saint Louis Hospital, Paris, France [50 isolates], and the North West England Mycology Reference Centre, Manchester, UK [46 isolates]). […] .

[2] = tested on: Aspergillus carbonarius (ATCC 8740); assay: CLSI MIC; format: cell-based
[3] = tested on: Rhizopus oryzae(ATCC 11145); assay: CLSI MIC; format: cell-based; conditions: Rhizopus arrhizus, ATCC11145, 1 strain
A. fumigatus (NCPF2010) [4] = assay: Fungicidal activity by subculture on agar (CFU-MFC); conditions: for MFC: Aspergillus fumigatus, NCPF2010, 48 h, read-out: CFU-MFC
Procedure: (§2) After the MIC for each compound was recorded, fungicidal activity was determined as previously described ([35]). Briefly, medium from each well (100 μl/well) was removed after pipetting up and down five times and subcultured onto 4% Sabouraud dextrose agar plates. The plates were incubated (35°C with ambient air) for 48 h, and the numbers of CFU were counted for each compound concentration. The minimum fungicidal concentration (MFC) was determined as the lowest compound concentration yielding 3 colonies or less.

[5] = tested on: Aspergillus niger (ATCC 1015); assay: EUCAST MIC; format: cell-based
[6] = tested on: Aspergillus flavus (AFL8, NRRC3357); assay: EUCAST MIC; format: cell-based
[7] = tested on: A. fumigatus hyphae (NCPF2010); assay: Persistence of action on A. fumigatus hyphae (resazurin microtiter assay); format: cell-based, Aspergillus fumigatus; conditions: Aspergillus fumigatus, NCPF2010
Procedure: The duration of action of test agents within the hyphae of A. fumigatus has been determined using a resazurin-based microtiter assay ([28]).
The persistence of action of the test agents against A. fumigatus hyphae (NCPF2010) was determined as previously reported ([28]). […] The plates were incubated for exactly 20 min at 35°C in 5% CO2. After the incubation time had elapsed, all wells on the designated washout plate were aspirated and growth medium (100 μl/well) was added across the plate. […] Resazurin (0.04% diluted in growth medium) was added to all wells of both the nonwashout and washout plates (5 μl/well) to give a final concentration of 0.002% resazurin. The plates were incubated at 35°C in 5% CO2 for 16 h. Subsequently, the fluorescence in each well was measured at an excitation λ of 545 nm and an emission λ of 600 nm using a multiscanner (Clariostar; BMG, Buckinghamshire, UK). […] This study was conducted in quadruplicate in three independent experiments.

[8] = tested on: Gibberella zeae(Fusarium graminearum) (ATCC 16106); assay: microbe, parasite or virus in culture; format: cell-based; conditions: ATCC16106
A. fumigatus (NCPF2010) [9] = assay: Broth microdilution MIC (96-well) preceding MFC determination; conditions: Aspergillus fumigatus
Procedure: as §2

[10] = tested on: ergosterol production in A. fumigatus (NCPF2010); assay: A. fumigatus cell-based ergosterol assay; conditions: Aspergillus fumigatus, NCPF2010, 24 h, read-out: IC50, inhibition of ergosterol production
Procedure: CYP51 enzyme-inhibitory activity was also measured in a cell-based assay, as described previously ([28]). In this plate-based ergosterol quantification experiment, oxidation of ergosterol by cholesterol oxidase was determined by observing the conversion of the weakly fluorescent resazurin to the highly fluorescent resorufin and was normalized using crystal violet staining (indicating cell number).
After incubation for 24 h at 35°C, the medium was removed from all wells and replaced with reaction buffer (catalog number A12216; Amplex red cholesterol assay kit; Thermo Fisher) and Amplex red solution. The plates were incubated for 30 min at 37°C with protection from light, after which the fluorescence was quantified using a spectrophotometer. The medium was removed from all wells and replaced with crystal violet solution (1%, vol/vol), and the plates were incubated at room temperature on a shaker for 30 min. The plates were washed three times with phosphate-buffered saline (PBS), and sodium dodecyl sulfate solution (0.1%, vol/vol) was added across the plate to lyse the cells. After incubation at room temperature for 1 h, the absorbance (OD) at 590 nm was measured using a spectrophotometer.

[11] = tested on: Penicillium citrinum (ATCC 9849); assay: CLSI MIC; format: cell-based; conditions: ATCC9849, 1 strain
[12] = tested on: Cryptococcus neoformans (ATCC 24067); assay: CLSI MIC; format: cell-based
A. fumigatus (NCPF2010) [13] = assay: Fungicidal activity by XTT colorimetric method (XTT-MFC); conditions: for MFC: NCPF2010, read-out: XTT-MFC
Procedure: In addition, the fungicidal effect of each compound was determined using 2,3-bis-(2-methoxy-4-nitro-5-sulfophenyl)-2H-tetrazolium-5-carboxanilide salt (XTT)-based quantitative colorimetric analysis (XTT-MFC).
After the removal of medium for culture-based testing of the number of CFU, the contents of all wells were carefully aspirated and warm PBS (200 μl/well) was added. After gentle agitation, the contents of all wells were aspirated and fresh medium was added (200 μl/well). The plates were incubated (35°C with ambient air) for 24 h. […] The plates were incubated (35°C with ambient air) for 2 h, after which the plates were agitated gently for 2 min. The optical density (OD) of each well at 450 nm and 620 nm was measured using a multiscanner (Clariostar; BMG, Buckinghamshire, UK).

[14] = tested on: Candida albicans (20240.047, ATCC 10231); assay: CLSI MIC; format: cell-based
[15] = tested on: Rhizomucor pusillus (ATCC 16458); assay: CLSI MIC; format: cell-based; conditions: ATCC16458, 1 strain
[16] = tested on: Trichophyton rubrum (ATCC 10218); assay: CLSI MIC; format: cell-based; conditions: ATCC10218, 1 strain
[17] = tested on: Aureobasidium pullulans (ATCC 348); assay: CLSI MIC; format: cell-based; conditions: ATCC348, 1 strain
[18] = tested on: Penicillium chrysogenum (ATCC 9480); assay: CLSI MIC; format: cell-based; conditions: ATCC9480, 1 strain
A. fumigatus AF72 = assay: EUCAST broth microdilution growth inhibition (OD 530 nm, 384-well); format: cell-based; conditions: Aspergillus fumigatus, strain AF72 (ITC-resistant), 48 h
Procedure: (§1) The antifungal activities of the test compounds against A. fumigatus strains (itraconazole [ITC]-susceptible strains NCPF2010, AF294, and AF293; ITC-resistant strains AF72 and AF91) were calculated from growth curves generated by spectrophotometric analysis and compared to the activities against positive and negative controls.

A. fumigatus AF293 = assay: as above; format: cell-based; conditions: Aspergillus fumigatus, strain AF293 (ITC-susceptible), 48 h
Procedure: as §1

A. fumigatus NCPF2010 = assay: as above; format: cell-based; conditions: Aspergillus fumigatus, strain NCPF2010 (ITC-susceptible), 48 h, range tested 0.002 to 1 μg/ml
Procedure: as §1

A. fumigatus AF294 = assay: as above; format: cell-based; conditions: Aspergillus fumigatus, strain AF294 (ITC-susceptible), 48 h
Procedure: as §1

A. fumigatus AF91 = assay: as above; format: cell-based; conditions: Aspergillus fumigatus, strain AF91 (ITC-resistant), 48 h
Procedure: as §1

[19] = tested on: Lichtheimia corymbifera (ATCC 7909); assay: CLSI MIC; format: cell-based; conditions: ATCC7909, 1 strain
[20] = tested on: Cladosporium argillaceum (ATCC 38013); assay: CLSI MIC; format: cell-based; conditions: Rhizocladosporium argillaceum, ATCC38013, 1 strain
[21] = tested on: Aspergillus flavus (ATCC 204304); assay: CLSI MIC; format: cell-based
[22] = 20 min contact, washout, 16 h incubation, read-out: Hyphae IC50 Washout
[23] = continuous contact 16 h, read-out: Hyphae IC50 No washout
[24] = Aspergillus fumigatus, NCPF2010, read-out: maximum inhibition of fungicidal activity

| Compound | MIC Range [1] [µg/mL] | MIC50 [1] [µg/mL] | MIC90 [1] [µg/mL] | MIC ([1]; read-out: MIC Geometric mean) [µg/mL] | MIC ([1]; read-out: MIC Mode) [µg/mL] | MIC [3] [µg/mL] | MFC (A. fumigatus (NCPF2010) [4]) [µg/mL] | IC50 [7, 22] [µg/mL] | IC50 [7, 23] [µg/mL] | MIC [8] [µg/mL] | MIC (A. fumigatus (NCPF2010) [9]) [µg/mL] | IC50 [10] | MIC [11] [µg/mL] | MFC (A. fumigatus (NCPF2010) [13]; Aspergillus fumigatus) [µg/mL] | MIC [15] [µg/mL] | MIC [16] [µg/mL] | MIC [17] [µg/mL] | MIC [18] [µg/mL] | IC50 (A. fumigatus AF72) [µg/mL] | IC90 (A. fumigatus AF72) [µg/mL] | other results |
| --- | --- | --- | --- | --- | --- | --- | --- | --- | --- | --- | --- | --- | --- | --- | --- | --- | --- | --- | --- | --- | --- |
| C[C@@H](c1ncncc1F)[C@](O)(Cn1cncn1)c1ccc(F)cc1F [Voriconazole, voriconazole] | 0.06 to 4 | 0.5 (≈ 1.43 µM) | 1 (≈ 2.86 µM) | 0.42 (≈ 1.2 µM) | 0.5 (≈ 1.43 µM) | > 8 | 16 (≈ 45.8 µM) | > 1 | 0.011 (≈ 0.0315 µM) | > 8 | 1.67 ± 0.58 (≈ 4.78 µM) | 0.067 µg/mL and 190 nM | > 8 | > 32 | > 8 | 0.063 (≈ 0.18 µM) | > 8 | 2 (≈ 5.73 µM) | 0.025 (≈ 0.0716 µM) | 0.066 (≈ 0.189 µM) | MIC ([2]; ATCC8740): 0.5 µg/mL (≈ 1.43 µM); MIC ([5]; ATCC1015): 1 µg/mL (≈ 2.86 µM); MIC [6]: 0.63 µg/mL (≈ 1.8 µM); MIC ([12]; ATCC24067): 0.016 µg/mL (≈ 0.0458 µM); inhibition at 32 µg/mL (A. fumigatus (NCPF2010) [13]; [24]): 69.2%; MIC ([14]; ATCC10231): 0.14 µg/mL (≈ 0.401 µM); IC50 (A. fumigatus AF293): 0.25 µg/mL (≈ 0.716 µM); IC90 (A. fumigatus AF293): 0.74 µg/mL (≈ 2.12 µM); IC50 (A. fumigatus NCPF2010): 0.15 µg/mL (≈ 0.429 µM); IC90 (A. fumigatus NCPF2010): 0.21 µg/mL (≈ 0.601 µM); IC50 (A. fumigatus AF294): 0.083 µg/mL (≈ 0.238 µM); IC90 (A. fumigatus AF294): 0.27 µg/mL (≈ 0.773 µM); IC50 (A. fumigatus AF91): 0.14 µg/mL (≈ 0.401 µM); IC90 (A. fumigatus AF91): 0.28 µg/mL (≈ 0.802 µM); MIC [19]: > 8 µg/mL; MIC [20]: 0.5 µg/mL (≈ 1.43 µM); MIC ([21]; ATCC204304): 2 µg/mL (≈ 5.73 µM) |
| CC[C@@H]([C@H](C)O)n1ncn(-c2ccc(N3CCN(c4ccc(OC[C@@H]5CO[C@@](Cn6cncn6)(c6ccc(F)cc6F)C5)cc4)CC3)cc2)c1=O [Posaconazole, posaconazole] | 0.016 to 2 | 0.063 (≈ 0.0899 µM) | 0.5 (≈ 0.713 µM) | 0.1 (≈ 0.143 µM) | 0.032 (≈ 0.0457 µM) | > 8 | 4 (≈ 5.71 µM) | 0.0022 (≈ 0.00314 µM) | 0.00045 (≈ 0.000642 µM) | > 8 | 0.125 (≈ 0.178 µM) | 0.012 µg/mL and 17 nM | 0.5 (≈ 0.713 µM) | 0.42 (≈ 0.599 µM) | > 8 | 0.031 (≈ 0.0442 µM) | 1 (≈ 1.43 µM) | 0.13 (≈ 0.186 µM) | 0.042 (≈ 0.0599 µM) | 0.3 (≈ 0.428 µM) | MIC ([2]; ATCC8740, CLSI, 1 strain, read-out: MIC): 0.063 µg/mL (≈ 0.0899 µM); CFU-MFC/MIC ratio (A. fumigatus (NCPF2010) [4]; NCPF2010): 32; MIC ([5]; ATCC1015, EUCAST, 1 strain, read-out: MIC): 0.2 µg/mL (≈ 0.285 µM); MIC ([6]; EUCAST, 2 strains, mean MIC, read-out: MIC): 0.16 µg/mL (≈ 0.228 µM); MIC ([12]; ATCC24067, CLSI, 1 strain, read-out: MIC): 0.016 µg/mL (≈ 0.0228 µM); inhibition at 2 µg/mL (A. fumigatus (NCPF2010) [13]; [24]): 100%; XTT-MFC/MIC ratio (A. fumigatus (NCPF2010) [13]; NCPF2010): 3.4; XTT-MFC (A. fumigatus (NCPF2010) [13]; NCPF2010, cutoff 99% inhibition): 0.42 ± 0.020 µg/mL; MIC ([14]; ATCC10231, CLSI, 2 strains, mean MIC, MIC = 50% inhibition of fungal growth, read-out: MIC): 0.081 µg/mL (≈ 0.116 µM); IC50 (A. fumigatus AF293): 0.01 µg/mL (≈ 0.0143 µM); IC90 (A. fumigatus AF293): 0.028 µg/mL (≈ 0.04 µM); IC50 (A. fumigatus NCPF2010): 0.007 µg/mL (≈ 0.00999 µM); IC90 (A. fumigatus NCPF2010): 0.0084 µg/mL (≈ 0.012 µM); IC50 (A. fumigatus AF294): 0.0056 µg/mL (≈ 0.00799 µM); IC90 (A. fumigatus AF294): 0.011 µg/mL (≈ 0.0157 µM); IC50 (A. fumigatus AF91): 0.038 µg/mL (≈ 0.0542 µM); IC90 (A. fumigatus AF91): 0.049 µg/mL (≈ 0.0699 µM); MIC [19]: > 8 µg/mL; MIC [20]: 0.25 µg/mL (≈ 0.357 µM); MIC ([21]; ATCC204304, CLSI, 1 strain, read-out: MIC): 0.13 µg/mL (≈ 0.186 µM) |

From paper PMC5923123, “In Vitro and In Vivo Efficacy of a Novel and Long-Acting Fungicidal Azole, PC1244, on Aspergillus fumigatus Infection” (Antimicrobial Agents and Chemotherapy, 2018)
